Key:
[1] = biological target: TOP2A (Homo sapiens, UniProt P11388); assay: in vitro TOP2A kDNA decatenation assay; format: biochemical
[2] = biological target: MYC (Homo sapiens, UniProt P01106); assay: biochemical
MYC, sequence (P01106 368-454 limits assumed): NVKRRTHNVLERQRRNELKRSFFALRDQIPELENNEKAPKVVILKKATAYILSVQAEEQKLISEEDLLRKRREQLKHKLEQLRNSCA

TOP2A, sequence (P11388 whole entry): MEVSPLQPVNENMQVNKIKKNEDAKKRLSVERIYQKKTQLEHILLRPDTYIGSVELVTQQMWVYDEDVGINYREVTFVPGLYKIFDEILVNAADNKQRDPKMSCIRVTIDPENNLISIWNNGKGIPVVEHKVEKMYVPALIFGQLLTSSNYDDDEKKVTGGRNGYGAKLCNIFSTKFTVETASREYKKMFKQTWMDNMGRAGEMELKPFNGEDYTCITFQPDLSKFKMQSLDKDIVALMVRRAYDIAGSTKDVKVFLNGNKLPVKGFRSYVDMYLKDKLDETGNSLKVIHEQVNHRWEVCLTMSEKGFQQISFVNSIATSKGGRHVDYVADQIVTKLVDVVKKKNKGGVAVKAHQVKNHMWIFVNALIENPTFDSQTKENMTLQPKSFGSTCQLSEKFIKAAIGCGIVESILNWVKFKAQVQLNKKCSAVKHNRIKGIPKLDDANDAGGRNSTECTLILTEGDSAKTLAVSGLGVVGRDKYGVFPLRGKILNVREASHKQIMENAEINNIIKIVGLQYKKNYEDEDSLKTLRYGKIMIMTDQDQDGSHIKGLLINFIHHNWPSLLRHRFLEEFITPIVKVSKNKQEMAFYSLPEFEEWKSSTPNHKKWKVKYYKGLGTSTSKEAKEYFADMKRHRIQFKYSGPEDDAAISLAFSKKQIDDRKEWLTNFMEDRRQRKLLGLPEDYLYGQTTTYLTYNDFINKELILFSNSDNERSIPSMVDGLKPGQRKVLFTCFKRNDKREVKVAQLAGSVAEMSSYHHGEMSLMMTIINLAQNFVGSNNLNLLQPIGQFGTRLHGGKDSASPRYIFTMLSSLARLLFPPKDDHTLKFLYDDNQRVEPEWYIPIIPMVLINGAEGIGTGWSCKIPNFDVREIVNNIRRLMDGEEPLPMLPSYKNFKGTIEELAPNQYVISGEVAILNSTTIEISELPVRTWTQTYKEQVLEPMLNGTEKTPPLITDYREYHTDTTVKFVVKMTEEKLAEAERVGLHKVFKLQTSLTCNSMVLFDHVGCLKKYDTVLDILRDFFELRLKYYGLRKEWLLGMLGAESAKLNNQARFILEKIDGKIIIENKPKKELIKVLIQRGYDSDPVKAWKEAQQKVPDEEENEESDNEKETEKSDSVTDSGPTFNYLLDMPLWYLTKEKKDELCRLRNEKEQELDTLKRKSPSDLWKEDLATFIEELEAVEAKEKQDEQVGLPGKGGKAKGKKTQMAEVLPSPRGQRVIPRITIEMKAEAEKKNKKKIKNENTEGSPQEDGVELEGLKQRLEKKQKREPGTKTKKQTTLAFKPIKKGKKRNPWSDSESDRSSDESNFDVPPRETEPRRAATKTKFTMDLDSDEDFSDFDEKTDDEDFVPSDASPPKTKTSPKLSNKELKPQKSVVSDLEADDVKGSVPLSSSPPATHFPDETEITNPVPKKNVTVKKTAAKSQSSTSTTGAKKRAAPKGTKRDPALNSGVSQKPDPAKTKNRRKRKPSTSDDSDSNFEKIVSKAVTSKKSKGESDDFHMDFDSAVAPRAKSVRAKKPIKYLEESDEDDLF

Structure (SMILES)	in vitro TOP2A kDNA decatenation assay [1]	Kd [2] [µM]
CCN(CC)CC[n+]1ccc2c(C)c3[nH]c4ccccc4c3c(C)c2c1 [MYCMI-7, 2-(5,11-Dimethyl-6H-25-pyrido[4,3-b]carbazol-2-yl)-N,N-diethylethanamine acetate]	> 10 µmol/L	~4
COc1cccc2c1C(=O)c1c(O)c3c(c(O)c1C2=O)C[C@@](O)(C(=O)CO)C[C@@H]3O[C@H]1C[C@H](N)[C@H](O)[C@H](C)O1 [doxorubicin, reference compound]	~ 3 μmol/L	–
